The source of these data is patent publication US11970498B2, “CDK2 inhibitors” (BLUEPRINT MEDICINES CORPORATION, priority 2021, dated 2024).

The target of one assay is CDK2/Cyclin E (Homo sapiens, UniProt P24941). As to the kind of experiment: CDK2/Cyclin E biochemical phosphorylation assay (Caliper mobility shift). The conditions noted are these: apparent IC50; 1.0 mM ATP or ATP Km; 1.25 nM enzyme; 25° C.; read-out: CDK2/cyclin E1 IC50. In outline: (§1)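 7.5 µM 5-FAM-QSPKKG-CONH2 peptide phosphorylated by CDK2/Cyclin E (1.25 nM) or GST-CDK1/Cyclin B1 (1.5 nM) at 1.0 mM ATP or ATP Km, in HEPES pH 7.5, MgCl2, Brij-35, DTT, 1% DMSO, 25 °C to 10–20% conversion. EDTA stop; Caliper mobility-shift readout; apparent IC50 from percent activity vs log concentration.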

The target of a further assay is T1, CDK1/Cyclin B1, GST-tag (Homo sapiens, UniProt P06493).
T1 construct: GST
T1 sequence (P06493 whole entry): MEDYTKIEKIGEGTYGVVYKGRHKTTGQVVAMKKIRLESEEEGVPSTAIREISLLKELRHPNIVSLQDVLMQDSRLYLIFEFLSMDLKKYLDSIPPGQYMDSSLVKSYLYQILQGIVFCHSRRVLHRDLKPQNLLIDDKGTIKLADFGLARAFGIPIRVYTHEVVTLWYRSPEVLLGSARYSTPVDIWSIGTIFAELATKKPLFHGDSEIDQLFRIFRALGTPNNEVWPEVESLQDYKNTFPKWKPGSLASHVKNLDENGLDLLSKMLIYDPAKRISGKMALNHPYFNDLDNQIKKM
T1 sequence (P14635 whole entry partner): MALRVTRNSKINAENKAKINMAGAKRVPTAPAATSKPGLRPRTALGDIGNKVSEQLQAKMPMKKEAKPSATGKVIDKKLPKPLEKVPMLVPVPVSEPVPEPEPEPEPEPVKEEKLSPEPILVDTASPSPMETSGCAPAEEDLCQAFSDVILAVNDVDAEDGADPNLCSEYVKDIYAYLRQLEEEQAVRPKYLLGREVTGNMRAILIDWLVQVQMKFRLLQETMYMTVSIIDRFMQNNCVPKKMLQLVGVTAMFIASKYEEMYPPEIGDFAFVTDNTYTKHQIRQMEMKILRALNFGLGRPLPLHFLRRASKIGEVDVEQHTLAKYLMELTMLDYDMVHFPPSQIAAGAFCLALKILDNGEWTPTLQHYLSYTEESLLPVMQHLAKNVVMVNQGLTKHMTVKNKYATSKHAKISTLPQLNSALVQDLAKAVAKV
As to the kind of experiment: CDK1/Cyclin B1 biochemical phosphorylation assay (Caliper mobility shift). The conditions noted are these: apparent IC50; 1.0 mM ATP or ATP Km; 1.5 nM enzyme; 25° C. In outline:
as §1

For `COc1cc(Nc2cnc3cnn(C[C@H]4C[C@@H](C)O[C@@H](C)C4)c3n2)n[nH]1` [Example 66, 1-(((2R,4r,6S)-2,6-dimethyltetrahydro-2H-pyran-4-yl)methyl)-N-(5-methoxy-1H-pyrazol-3-yl)-1H-pyrazolo[3,4-b]pyrazin-6-amine], the IC50 on CDK2/Cyclin E is no more than 10 nM; on CDK1/Cyclin B1, GST-tag, less than 100 nM.
The corresponding values for `C[C@@H](CCO)n1ncc2ncc(Nc3cc(OC(F)F)[nH]n3)nc21` (single isomer, unassigned) [Example 206, (R)-3-(6-((5-(difluoromethoxy)-1H-pyrazol-3-yl)amino)-1H-pyrazolo[3,4-b]pyrazin-1-yl)butan-1-ol or (S)-3-(6-((5-(difluoromethoxy)-1H-pyrazol-3-yl)amino)-1H-pyrazolo[3,4-b]pyrazin-1-yl)butan-1-ol] are greater than 100 nM and no less than 500 nM.
The corresponding values for `Cn1cncc1Cn1ncc2ncc(Nc3cc(OC(F)F)[nH]n3)nc21` [Example 131, N-(5-(difluoromethoxy)-1H-pyrazol-3-yl)-1-((1-methyl-1H-imidazol-5-yl)methyl)-1H-pyrazolo[3,4-b]pyrazin-6-amine] are 30 to 100 nM and no less than 500 nM.
In the same order, the values of `FC(F)Oc1cc(Nc2cnc3cnn(CC4(C(F)(F)F)CCOCC4)c3n2)n[nH]1` [Example 121, N-(5-(difluoromethoxy)-1H-pyrazol-3-yl)-1-((4-(trifluoromethyl)tetrahydro-2H-pyran-4-yl)methyl)-1H-pyrazolo[3,4-b]pyrazin-6-amine] are 30 to 100 nM and no less than 500 nM.
Turning to `C[C@]1(Cn2ncc3ncc(Nc4cc(OC(F)F)[nH]n4)nc32)CCOC1` (single isomer, unassigned) [Example 165, (R)-N-(5-(difluoromethoxy)-1H-pyrazol-3-yl)-1-((3-methyltetrahydrofuran-3-yl)methyl)-1H-pyrazolo[3,4-b]pyrazin-6-amine or (S)-N-(5-(difluoromethoxy)-1H-pyrazol-3-yl)-1-((3-methyltetrahydrofuran-3-yl)methyl)-1H-pyrazolo[3,4-b]pyrazin-6-amine], the IC50 was 30 to 100 nM on CDK2/Cyclin E and no less than 500 nM at CDK1/Cyclin B1, GST-tag.
In the same order, the values of `FC(F)Oc1cc(Nc2cnc3cnn(C[C@H]4C[C@@H]4F)c3n2)n[nH]1` (single isomer, unassigned) [Example 160, N-(5-(difluoromethoxy)-1H-pyrazol-3-yl)-1-(((1S,2R)-2-fluorocyclopropyl)methyl)-1H-pyrazolo[3,4-b]pyrazin-6-amine or N-(5-(difluoromethoxy)-1H-pyrazol-3-yl)-1-(((1R,2S)-2-fluorocyclopropyl)methyl)-1H-pyrazolo[3,4-b]pyrazin-6-amine] are 20 to 30 nM and no less than 500 nM.
